Assay results as given in ChEMBL document CHEMBL1123484 (J Med Chem, 1986).

What was measured:
[1] = biological target: T1, Folylpolyglutamate synthase, mitochondrial (Mus musculus, UniProt P48760); assay: Compound was tested for its ability to inhibit Folyl-polyglutamate synthase from mouse liver
T1 sequence (P48760 whole entry): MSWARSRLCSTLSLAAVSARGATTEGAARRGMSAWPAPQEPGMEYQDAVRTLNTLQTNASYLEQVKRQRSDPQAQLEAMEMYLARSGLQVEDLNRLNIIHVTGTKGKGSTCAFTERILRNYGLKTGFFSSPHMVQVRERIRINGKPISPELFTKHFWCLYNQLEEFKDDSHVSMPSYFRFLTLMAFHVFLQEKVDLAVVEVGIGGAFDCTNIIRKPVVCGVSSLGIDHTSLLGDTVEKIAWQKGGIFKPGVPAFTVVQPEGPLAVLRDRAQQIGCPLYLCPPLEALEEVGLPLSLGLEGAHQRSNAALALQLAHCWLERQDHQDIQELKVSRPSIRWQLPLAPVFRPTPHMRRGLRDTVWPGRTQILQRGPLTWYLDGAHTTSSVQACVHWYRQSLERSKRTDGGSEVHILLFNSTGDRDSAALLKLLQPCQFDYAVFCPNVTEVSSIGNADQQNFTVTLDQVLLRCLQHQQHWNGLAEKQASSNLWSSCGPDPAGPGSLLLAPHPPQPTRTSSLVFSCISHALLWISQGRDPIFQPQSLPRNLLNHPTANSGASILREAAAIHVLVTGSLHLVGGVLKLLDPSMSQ

[2] = system: L1210 ( R81); assay: Compound was tested for its ability to inhibit growth of L1210/R81 cells; format: functional, cell-based; conditions: Mus musculus
[3] = system: L1210; assay: Compound was tested for its ability to inhibit growth of L1210 mouse leukemia cells; format: functional, cell-based
[4] = biological target: T2, Dihydrofolate reductase (Mus musculus, UniProt P00375); assay: biochemical
T2 sequence (P00375 whole entry): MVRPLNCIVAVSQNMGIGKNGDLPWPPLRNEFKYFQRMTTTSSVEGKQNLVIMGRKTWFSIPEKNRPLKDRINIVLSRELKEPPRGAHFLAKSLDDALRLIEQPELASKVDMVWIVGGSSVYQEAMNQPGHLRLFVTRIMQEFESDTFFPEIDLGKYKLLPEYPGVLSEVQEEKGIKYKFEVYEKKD
Description: Compound was tested for its ability to inhibit purified dihydrofolate reductase(DHFR) from L1210/R81 cells

[5] = biological target: T3, Folylpolyglutamate synthase, mitochondrial (Mus musculus) (UniProt P48760); assay: Compound (500 uM folate
T3 sequence (whole entry): T1 sequence (P48760 whole entry)

Row | SMILES | Ki [1] [µM] | IC50 [2] [µM] | IC50 [3] [nM] | IC50 [4] [nM] | inhibition [5] [%]
1 | CN(Cc1cnc2nc(N)nc(N)c2n1)c1ccc(C(=O)NC(CN)C(=O)O)cc1 (stereo unspecified) | – | 405 | 440 | 180 | < 10
2 | CN(Cc1cnc2nc(N)nc(N)c2n1)c1ccc(C(=O)NC(CCCCN)C(=O)O)cc1 (stereo unspecified) | – | 220 | 400 | 65 | < 10
3 | CN(Cc1cnc2nc(N)nc(N)c2n1)c1ccc(C(=O)NC(CCN)C(=O)O)cc1 (stereo unspecified) | – | 290 | 2420 | 120 | < 10
4 | Nc1nc(N)c2nc(CNc3ccc(C(=O)N[C@@H](CCC(=O)O)C(=O)O)cc3)cnc2n1 [AMINOPTERIN] | – | 84 | – | – | –

Continued, values first:

Row | Ki [1] [µM] | IC50 [2] [µM] | IC50 [3] [nM] | IC50 [4] [nM] | inhibition [5] [%] | SMILES
5 | 20.4 | 86 | 1300 | 160 | – | CN(Cc1cnc2nc(N)nc(N)c2n1)c1ccc(C(=O)NC(CCCN)C(=O)O)cc1 (stereo unspecified)
6 | 0.15 | 32 | 1300 | – | – | NCCCC(NC(=O)c1ccc(NCc2cnc3nc(N)nc(N)c3n2)cc1)C(=O)O (stereo unspecified)
7 | – | 220 | – | – | – | CN(Cc1cnc2nc(N)nc(N)c2n1)c1ccc(C(=O)N[C@@H](CCC(=O)O)C(=O)O)cc1 [METHOTREXATE]
